Source: ChEMBL document CHEMBL4602732, “Optimizing Pyrazolopyrimidine Inhibitors of Calcium Dependent Protein Kinase 1 for Treatment of Acute and Chronic Toxoplasmosis” (J Med Chem, 2020)
The source made the active and inactive calls. No cut-off for these calls is given here.

Assays:
MDR1 = assay: Efflux ratio of apparent permeability across basolateral to apical side over apical to basolateral side in MDCK2-MDR1 cells at 2 uM measured after 150 mins by LC-MS/MS analysis; type: ADME, cell-based, Canis lupus familiaris; conditions: dog, MDCK-MDR1
Toxoplasma gondii [1] = assay: Protection against reactivation of type 2 Toxoplasma gondii ME49 infection in sulfadiazin-treated Ifngr1-/- CD1 mouse assessed as reduction in parasite infection at 60 mg/kg, po administered twice daily via gavage for 8 days measured up to 30 days by luciferase reporter gene based bioluminescence assay; type: functional, organism-based
[2] = tested on: Src (human) versus Toxoplasma gondii CDPK1; assay: Selectivity ratio of IC50 for inhibition of human Src expressed in Escherichia coli BL21 to IC50 for inhibition of Toxoplasma gondii full-length wild-type C-terminal His-tagged CDPK1 expressed in Escherichia coli BL21(DE3)V2RpAcYc-LIC+LamP; type: toxicity; conditions: read-out: Ratio IC50
Toxoplasma gondii [3] = assay: Antiparasitic activity against type 1 Toxoplasma gondii RH tachyzoites infected in CD1 mouse assessed as reduction in parasite expansion at 30 mg/kg, po administered twice daily via gavage for 7 days by bioluminescence assay; type: functional, organism-based
Toxoplasma gondii [4] = assay: Protection against reactivation of type 2 Toxoplasma gondii ME49 infection in sulfadiazin-treated Ifngr1-/- CD1 mouse assessed as increase in mouse survival at 60 mg/kg, po administered twice daily via gavage for 21 days measured up to 30 days; type: functional, organism-based
Toxoplasma gondii [5] = assay: Protection against reactivation of type 2 Toxoplasma gondii ME49 infection in sulfadiazin-treated Ifngr1-/- CD1 mouse assessed as increase in mouse survival at 60 to 120 mg/kg, po administered twice daily via gavage for 8 days measured up to 30 days; type: functional, organism-based
Toxoplasma gondii [6] = assay: Antiparasitic activity against type 1 Toxoplasma gondii RH tachyzoites infected in CD1 mouse assessed as reduction in mouse death at 60 mg/kg, po administered once daily via gavage for 7 days followed by lung and brain isolation on 15 days post-infection and co-culture with naive CD1 mouse; type: functional, organism-based
Toxoplasma gondii [7] = assay: Protection against reactivation of type 2 Toxoplasma gondii ME49 infection in sulfadiazin-treated Ifngr1-/- CD1 mouse assessed as reduction in serological conversion at 60 mg/kg, po administered twice daily via gavage for 21 days followed by brain isolation on 30 days post-infection and co-culture with Ifngr1-/- CD1 mouse; type: functional, organism-based
Toxoplasma gondii [8] = assay: Antiparasitic activity against type 1 Toxoplasma gondii RH tachyzoites infected in CD1 mouse assessed as reduction in parasite dissemination at 15 mg/kg, po administered four times daily via gavage for 7 days by bioluminescence assay; type: functional, organism-based
Toxoplasma gondii [9] = assay: Antiparasitic activity against type 1 Toxoplasma gondii RH tachyzoites infected in CD1 mouse assessed as reduction in parasite dissemination at 30 mg/kg, po administered twice daily via gavage for 7 days by bioluminescence assay; type: functional, organism-based
[10] = Time at which plasma concentration stays above in vitro EC50 for antiparasitic activity against 2F clone of type 1 Toxoplasma gondii RH tachyzoites expressing luciferase infected in HFF in CD1 mouse at 30 mg/kg, po; type: ADME, organism-based; conditions: in vivo
[11] = molecular target: T1, Alpha-2A adrenergic receptor (Homo sapiens, UniProt P08913); assay: Antagonist activity at recombinant human Gi/Go-coupled ADRA2A expressed in CHOK1 cells assessed as reduction in UK14304-induced inhibition of forskolin-stimulated cAMP accumulation; type: cell-based; conditions: cho-k1
T1 sequence (P08913 whole entry): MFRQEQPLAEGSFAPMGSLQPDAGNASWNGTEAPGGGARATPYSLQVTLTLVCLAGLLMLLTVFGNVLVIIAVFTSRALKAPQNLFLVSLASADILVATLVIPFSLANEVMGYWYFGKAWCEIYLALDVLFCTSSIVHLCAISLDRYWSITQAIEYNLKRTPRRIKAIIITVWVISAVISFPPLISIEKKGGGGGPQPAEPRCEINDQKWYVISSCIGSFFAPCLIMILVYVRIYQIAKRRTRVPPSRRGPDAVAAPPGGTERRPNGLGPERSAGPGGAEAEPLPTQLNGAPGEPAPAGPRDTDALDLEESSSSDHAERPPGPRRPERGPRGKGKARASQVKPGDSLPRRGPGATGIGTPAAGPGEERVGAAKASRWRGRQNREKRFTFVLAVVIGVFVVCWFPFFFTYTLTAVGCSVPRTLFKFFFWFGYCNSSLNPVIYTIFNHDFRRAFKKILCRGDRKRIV

Toxoplasma gondii [12] = assay: Antiparasitic activity against type 1 Toxoplasma gondii RH tachyzoites infected in CD1 mouse assessed as […] at 30 mg/kg, po administered twice daily via gavage for 7 days followed by lung and brain isolation on 15 days post-infection and co-culture with naive CD1 mouse; type: functional
[13] = Kinetic solubility of the compound in pH 7.4 phosphate buffer measured after 24 hrs by UV-HPLC analysis; type: physicochemical; conditions: pH 7.4, 24 h
Cytochrome P450 2C19 = Cytochrome P450 2C19 (Homo sapiens, UniProt P33261); assay: Inhibition of CYP2C19 in human liver microsomes using S-mephenytoin as substrate measured after 10 mins by LC-MS/MS analysis; type: ADME
[14] = Ratio of drug level in central nervous system to plasma in CD1 mouse at 10 mg/kg, po administered via gavage measured after 8 hrs by LC-MS/MS analysis; type: ADME, organism-based, CNS/Plasma; conditions: central nervous system and plasma
Toxoplasma gondii [15] = assay: Protection against reactivation of type 2 Toxoplasma gondii ME49 infection in sulfadiazin-treated Ifngr1-/- CD1 mouse assessed as increase in weight gain at 60 mg/kg, po administered twice daily via gavage for 21 days measured up to 30 days; type: functional, organism-based
MAP4K4 = MAP4K4 (Homo sapiens, UniProt O95819); assay: Inhibition of recombinant human GST-tagged MAP4K4 catalytic domain expressed in baculovirus expression system at 1 uM by Lanthascreen assay relative to control
Sequence of MAP4K4 (O95819 whole entry, the tested form may be a part): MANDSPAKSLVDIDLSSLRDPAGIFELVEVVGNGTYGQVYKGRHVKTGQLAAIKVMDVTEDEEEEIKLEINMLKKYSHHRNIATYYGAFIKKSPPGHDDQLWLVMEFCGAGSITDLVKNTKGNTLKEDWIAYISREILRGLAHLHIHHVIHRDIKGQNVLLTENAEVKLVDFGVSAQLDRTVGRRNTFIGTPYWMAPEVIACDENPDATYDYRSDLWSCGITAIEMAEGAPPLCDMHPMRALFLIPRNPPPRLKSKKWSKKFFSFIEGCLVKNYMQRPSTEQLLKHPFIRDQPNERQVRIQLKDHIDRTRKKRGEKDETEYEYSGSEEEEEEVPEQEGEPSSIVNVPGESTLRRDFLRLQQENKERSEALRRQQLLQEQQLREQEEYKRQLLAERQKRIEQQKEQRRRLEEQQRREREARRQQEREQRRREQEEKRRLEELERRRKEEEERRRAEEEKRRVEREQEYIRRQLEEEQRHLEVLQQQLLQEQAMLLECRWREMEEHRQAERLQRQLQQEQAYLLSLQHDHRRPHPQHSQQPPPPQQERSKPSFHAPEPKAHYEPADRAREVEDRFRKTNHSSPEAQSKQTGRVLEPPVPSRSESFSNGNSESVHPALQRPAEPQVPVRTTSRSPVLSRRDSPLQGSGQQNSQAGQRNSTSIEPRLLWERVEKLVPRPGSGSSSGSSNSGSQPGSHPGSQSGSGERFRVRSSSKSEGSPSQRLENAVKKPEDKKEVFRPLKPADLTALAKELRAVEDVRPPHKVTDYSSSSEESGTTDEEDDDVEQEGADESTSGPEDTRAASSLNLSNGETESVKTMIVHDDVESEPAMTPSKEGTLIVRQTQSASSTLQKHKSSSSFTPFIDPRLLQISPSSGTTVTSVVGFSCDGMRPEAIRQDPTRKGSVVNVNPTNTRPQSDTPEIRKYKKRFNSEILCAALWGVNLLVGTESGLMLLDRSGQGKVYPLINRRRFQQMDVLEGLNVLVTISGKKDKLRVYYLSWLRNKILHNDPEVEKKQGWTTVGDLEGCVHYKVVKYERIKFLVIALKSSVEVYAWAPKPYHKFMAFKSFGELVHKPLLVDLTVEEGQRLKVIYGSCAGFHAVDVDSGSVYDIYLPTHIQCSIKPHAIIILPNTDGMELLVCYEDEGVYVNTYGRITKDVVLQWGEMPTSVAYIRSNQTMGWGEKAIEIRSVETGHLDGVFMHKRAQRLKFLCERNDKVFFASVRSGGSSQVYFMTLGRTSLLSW

Sequence of Cytochrome P450 2C19 (P33261 whole entry): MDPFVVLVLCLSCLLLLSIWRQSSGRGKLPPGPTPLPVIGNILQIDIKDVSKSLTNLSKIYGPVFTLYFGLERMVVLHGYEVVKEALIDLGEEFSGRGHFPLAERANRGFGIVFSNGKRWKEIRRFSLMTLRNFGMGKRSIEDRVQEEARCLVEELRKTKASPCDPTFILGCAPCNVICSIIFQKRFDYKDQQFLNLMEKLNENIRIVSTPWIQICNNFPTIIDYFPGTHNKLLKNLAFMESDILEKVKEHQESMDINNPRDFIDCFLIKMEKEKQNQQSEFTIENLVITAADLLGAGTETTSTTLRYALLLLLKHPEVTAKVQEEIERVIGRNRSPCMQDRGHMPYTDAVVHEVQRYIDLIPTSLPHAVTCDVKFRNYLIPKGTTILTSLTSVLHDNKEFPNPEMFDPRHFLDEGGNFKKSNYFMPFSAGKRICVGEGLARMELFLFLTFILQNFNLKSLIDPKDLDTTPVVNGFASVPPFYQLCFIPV

Nc1ncnc2c1c(Oc1cc(C(F)(F)F)ccn1)nn2C1CC1
efflux ratio at […], 2 µM (MDR1): 0.64 | Activity (Toxoplasma gondii [1]): inactive | selectivity ratio [2]: > 1000 | Activity (Toxoplasma gondii [3]): Active | Activity (Toxoplasma gondii [4]): Active | Activity (Toxoplasma gondii [5]): Active | Activity (Toxoplasma gondii [6]): inactive | Activity (Toxoplasma gondii [7]): Active | Activity (Toxoplasma gondii [8]): Active | Activity (Toxoplasma gondii [9]): Active | T>EC50 [10]: 8 h | inhibition (INH) [11]: 51% | survival at 30 mg/kg (Toxoplasma gondii [12]): 20% | Kinetic_solubility [13]: 191 µM | EC50 (Cytochrome P450 2C19): 5.78 µM | Kp at 8 h [14]: 0.96 | Activity (Toxoplasma gondii [15]): Active | inhibition at 1 µM (MAP4K4): > 50%
